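Where inhibition never reached the appropriate level, the endpoint shown equals the highest concentration tested. Otherwise, values were interpolated linearly from a five-concentration, 48-hour dose response in 96-well plates. At the GI50, growth is halved.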 Activity calls are given as the source filed them. Cut-off read from the data, not from the text of the source: active = GI50 up to about 1.1 µM and inactive = higher.
What was measured:
Test in all cases: NCI tumour cell line growth inhibition, 48 h
[1] = system: 786-0
[2] = system: COLO 205
[3] = system: DU-145
[4] = system: HCT-116
[5] = system: Hs-578T
[6] = system: LOX IMVI
[7] = system: MCF7
[8] = system: NCI-H23
[9] = system: NCI-H460
[10] = system: NCI/ADR-RES
[11] = system: RXF 393
[12] = system: SK-MEL-5
[13] = system: SK-OV-3
[14] = system: SNB-19
[15] = system: SR
[16] = system: SW-620
[17] = system: TK-10
[18] = system: UACC-62
[19] = system: SNB-75
[20] = system: UACC-257

Measured: GI50

COC(=O)/C=C(\C(=O)OC)c1cc(C)c2cc(C(C)C)ccc(C)c1-2
inactive: [1] 75.5 µM | [2] 30.3 µM | [3] 60.3 µM | [4] 34 µM | [5] 42.7 µM | [6] 45.2 µM | [7] 24.9 µM | [8] 31.8 µM | [9] 40.7 µM | [10] 32 µM | [11] 41.4 µM | [12] 25.6 µM | [13] 85.9 µM | [14] > 100 µM | [15] > 100 µM | [16] 34 µM | [17] 83.9 µM | [18] 32.2 µM

CCOC(=O)c1cc(C2CCN(CC(C)CC)C2=S)c(-c2cc(C)no2)[nH]1 (stereo unspecified)
inactive: [1] > 100 µM | [2] 37.4 µM | [3] > 100 µM | [4] 88.9 µM | [5] 89.7 µM | [6] 41.8 µM | [7] 89.3 µM | [8] > 100 µM | [9] > 100 µM | [10] 41.3 µM | [11] > 100 µM | [12] 48.4 µM | [13] > 100 µM | [14] 46.1 µM | [19] 57.9 µM | [15] 56.5 µM | [16] > 100 µM | [20] > 100 µM | [18] 72.3 µM

Cn1c(-c2cccs2)cc(-c2ccsc2)c1-c1ccsc1
inactive: [1] > 100 µM | [2] > 100 µM | [3] > 100 µM | [4] 64.1 µM | [5] > 100 µM | [7] 6.59 µM | [8] 8.24 µM | [9] > 100 µM | [10] > 100 µM | [11] > 100 µM | [12] 36.1 µM | [13] > 100 µM | [14] > 100 µM | [19] > 100 µM | [15] > 100 µM | [16] > 100 µM | [17] > 100 µM | [20] > 100 µM | [18] > 100 µM

O=c1c(Cc2ccc(Cl)cc2)nnc2sc(-c3ccc([N+](=O)[O-])cc3)nn12
inactive: [1] 33.3 µM | [3] 29.8 µM | [4] 20 µM | [5] 42 µM | [6] 29.2 µM | [7] 19.6 µM | [8] 20.7 µM | [9] 16.1 µM | [10] 32.1 µM | [11] 24.3 µM | [13] 38.3 µM | [14] > 100 µM | [15] 22.1 µM | [16] 31.1 µM | [17] 25.8 µM | [20] 17.1 µM | [18] 14.2 µM

COC(=O)/C=C\[C@@H]1[C@H](C)N1S(=O)(=O)c1ccc(C)cc1 (stereo partly specified)
inactive: [1] > 100 µM | [2] > 100 µM | [3] > 100 µM | [4] > 100 µM | [5] > 100 µM | [6] > 100 µM | [7] > 100 µM | [8] > 100 µM | [9] > 100 µM | [10] > 100 µM | [11] > 100 µM | [12] > 100 µM | [13] > 100 µM | [14] > 100 µM | [15] > 100 µM | [16] > 100 µM | [17] > 100 µM | [20] > 100 µM | [18] > 100 µM

O=C(c1ccccc1)C1C(C(=O)c2ccccc2)C(c2ccccc2)N(c2ccccc2)C1c1ccccc1 (stereo unspecified)
inactive: [1] > 100 µM | [2] > 100 µM | [3] > 100 µM | [4] > 100 µM | [5] 48 µM | [6] > 100 µM | [7] > 100 µM | [8] > 100 µM | [9] > 100 µM | [10] > 100 µM | [11] > 100 µM | [12] > 100 µM | [14] > 100 µM | [15] > 100 µM | [16] > 100 µM | [17] > 100 µM | [20] > 100 µM | [18] > 100 µM

COc1ccc(/N=C2\C(=O)Nc3ccc(Br)cc32)cc1
inactive: [1] 16.3 µM | [2] 15.7 µM | [3] 32.3 µM | [4] 14.2 µM | [5] 41.5 µM | [6] 10.1 µM | [7] 14.6 µM | [8] 18.2 µM | [9] 21.8 µM | [10] 18.7 µM | [11] 18.2 µM | [12] 11.2 µM | [13] 24.3 µM | [14] 33.4 µM | [15] 3.58 µM | [16] 16 µM | [17] 23.6 µM | [20] 20.7 µM | [18] 4.89 µM

COC(=O)CCSC1=CC(=O)c2nc3ccccc3c3ccnc1c23
inactive: [1] 19.9 µM | [2] 13.6 µM | [3] 22.2 µM | [4] 20.1 µM | [5] 23.4 µM | [7] 20.2 µM | [8] 15.6 µM | [9] 16.1 µM | [10] 15.3 µM | [11] 20.3 µM | [12] 18.8 µM | [13] 54.3 µM | [14] > 100 µM | [19] > 100 µM | [15] 5.32 µM | [16] 22.2 µM | [17] 14.2 µM | [20] 17.2 µM | [18] 8.09 µM

Cc1nn(CNc2ccc(F)c(Cl)c2)c(=S)n1/N=C/c1ccc(-c2ccc(Cl)cc2Cl)o1
inactive: [1] 15.3 µM | [3] 16.9 µM | [4] 15.7 µM | [5] 15.5 µM | [6] 16.6 µM | [7] 18.2 µM | [8] 20.1 µM | [9] 17.1 µM | [10] 19.3 µM | [11] 17.9 µM | [12] 16.7 µM | [13] 16.9 µM | [15] 1.4 µM | [16] 15.6 µM | [17] 15.3 µM | [20] 22.3 µM

CC1(C)CC[C@]2(C)CC=C3[C@]4(C)CC[C@H]5C(C)(C)C(=O)CC[C@]5(C)[C@H]4CC[C@@]3(C)[C@H]2C1
inactive: [1] > 100 µM | [2] > 100 µM | [3] > 100 µM | [4] > 100 µM | [5] > 100 µM | [6] > 100 µM | [7] > 100 µM | [8] > 100 µM | [10] > 100 µM | [11] > 100 µM | [12] > 100 µM | [13] > 100 µM | [14] > 100 µM | [15] > 100 µM | [16] > 100 µM | [17] > 100 µM | [20] > 100 µM | [18] > 100 µM

COC(=O)[C@H]1CO[C@H]2C/C(C)=C/CC/C(C)=C/CC[C@@]3(C)O[C@@H]3C[C@H]21
inactive: [1] 16.3 µM | [2] 10.8 µM | [3] 23.7 µM | [4] 9.91 µM | [5] 14 µM | [7] 16.9 µM | [8] 17.5 µM | [9] 9.73 µM | [10] 10.7 µM | [11] 12.9 µM | [12] 8.2 µM | [13] 29.9 µM | [14] > 50 µM | [19] 14.4 µM | [15] 10.6 µM | [16] 10.4 µM | [17] 20 µM | [20] 18.4 µM | [18] 8.87 µM
